Data reported in publication PMC8620685, “Effect of Selected Silyl Groups on the Anticancer Activity of 3,4-Dibromo-5-Hydroxy-Furan-2(5H)-One Derivatives” (Pharmaceuticals, 2021).

Legend:
HCT 116 p53−/− = experiment: MTT assay, HCT 116 p53−/−; format: cell-based; conditions: Homo sapiens, HCT-116, 72 h, read-out: IC50 (cytotoxicity), HCT 116 p53−/−
Protocol: (§1) The in vitro antitumor activities of the MBA and its derivatives (Table 2) were assayed against a panel of human cancer cell lines (HCT116, HCT-116 ^−/−p53, HT-29, MCF-7, SJSA-1, U2OS, HepG2 and Hep3B) using the MTT assay. As a reference drug we used 5-fluorouracil (5-FU). […] On the basis of in vitro antiproliferative activities, compounds 3b and 3c were selected for further mechanistic studies in the HCT-116 cell line.
(§2) Human cells lines: colon cancer (HCT-116 wt, HT-29), non-small lung carcinoma (A549), and bronchial epithelial cells (BEAS-2B) were obtained from American Type Culture Collection (ATCC, Manassas, VA, USA). Isogenic cell line HCT 116 p53^−/− (deleted both p53 alleles) were a gift from Dr. Bert Vogelstein. Other cell lines, namely MCF-7, SJSA-1, U2OS, HepG2, and Hep3B were received from the collection stored at Centre of Biotechnology of Silesian University of Technology. All cells were grown in DMEM with a high glucose medium (Sigma-Aldrich, Taufkirchen, Germany) supplemented with 10% (v/v) inactivated fetal bovine serum (FBS) (EURx, Gdańsk, Poland) and 1% antibiotics (10,000 μg/mL of streptomycin and 10,000 units/ml of penicillin) (Sigma-Aldrich, Taufkirchen, Germany) at 37 °C in humidified 5% CO2. The maximum concentration of DMSO in the culture media was 0.4%.
(§3) 5 × 10^3 cells per well for the MCF-7 cell line and 2.5 × 10^3 cells per well for the other cell lines were seeded in 96-well plates to adhere for 24 h. Afterward, the cells were treated with tested compounds. After 72 hours of incubation, 50 μL 0.5 mg/ml solution of MTT (3-(4,5-dimethylthiazol-2-yl)-2,5-diphenyl-2H-tetrazolium bromide) were added to each well and the plates were incubated for 3 h at 37 °C. Next, the MTT solution was removed from the plates and formed formazan crystals were dissolved in 2-propanol (Avantor Performance Materials, Gliwice, Poland) containing 0.04 M hydrochloric acid (Avantor Performance Materials, Gliwice, Poland). The absorbance was measured at 570 nm wavelength using a multiwall plate reader (BioTek, Winooski, VT, USA). The experiment was performed at a minimum of 3 independent replicates. Cell viability was set as a percentage versus vehicle control. IC50 was defined as a concentration of a drug that decreased cell viability by 50% relative to the untreated control.

HT-29 = experiment: MTT assay, HT-29; format: cell-based; conditions: Homo sapiens, HT-29, 72 h, read-out: IC50 (cytotoxicity), HT-29
Protocol: as §1, §2, §3

U2OS = experiment: MTT assay, U2OS; format: cell-based; conditions: Homo sapiens, 72 h, read-out: IC50 (cytotoxicity), U2OS
Protocol: as §1, §2, §3

HCT-116 cells [1] = experiment: Cell cycle analysis (PI staining, flow cytometry); format: cell-based, human; conditions: 24 h; for effect on progression of the cell cycle / sub-G1 cells / increase of the sub-G1 population: HCT-116; for sub-G1 cells: untreated cells 0.3%
Protocol: To better understand the origin of the higher susceptibility of colon cancer cells to MBA and its novel derivatives, compounds 3b and 3c were selected to test their ability to perturb the cell cycle in the HCT-116 cell line. […] However, a significant increase in the percentage of sub-G1 cells after treatment with compounds 3b and 3c was observed. Compound 3b increased the sub-G1 population by 10% and 31%, at a concentration of 10 μM and 20 μM, respectively, while compound 3c exerts such effect only by 10% at the highest tested concentration (Figure 2).
The HCT 116 cells were seeded in 6-well plates (Nunc, ThermoFisher, Waltham, MA, USA) at a density of 5 × 10^4 cells/well. After 24 h the medium was replaced with tested compounds. The cells were incubated for 24 h at 37 °C. Afterward, floating cells were collected and adherent cells were harvested by trypsinization and centrifuged at 600× g. The cells were washed with PBS (phosphate buffered saline) (Sigma-Aldrich, Taufkirchen, Germany) and then fixed in 70% ice-cold ethanol and stored at −20 °C overnight. The next day the cells were centrifuged at 600× g, washed with PBS, treated with 100 μg/mL RNase A solution (EURx, Gdańsk, Poland), 100 μg/ml solution of propidium iodide (PI) (Acros Organics, Geel, Belgium) and incubated for 30 min at room temperature in the dark. After staining, the cells were analyzed using a Becton Dickinson FACS Aria III sorter (BD Company, San Diego, CA, USA). Experiments were repeated at least twice. Data were analyzed using ModFit LTTM Software (Verity Software House, Topsham, ME, USA).

HCT-116 cells [2] = experiment: Annexin V-FITC/PI apoptosis assay; format: cell-based, human
Protocol: To verify this thesis, we utilized annexin-V/PI double staining of cells, which were subsequently subjected to flow cytometric analysis.
The HCT 116 cells were seeded in 6-well plate (Nunc, ThermoFisher, Waltham, MA, USA) at a density of 5 × 10^4 cells/well and allowed to attach. After 24 h the medium was replaced with tested compounds. The cells were then incubated for 24 h at 37 °C. Next, both floating and adherent cells were harvested and centrifuged at 600× g. The cells were washed with PBS (phosphate buffered saline) (Sigma-Aldrich, Taufkirchen, Germany) and we followed instructions from the manufacturer of the Annexin V-FITC Apoptosis Detection Kit (Biotool, Jupiter, FL, USA). Fluorescence was measured using a Becton Dickinson FACS Aria III sorter (BD Company, San Diego, CA, USA). Experiments were repeated at least twice. Data were analyzed using FCE Express 7 Software (DeNovo Software, Pasadena, CA, USA).

cleaved caspase-3 = experiment: Human Apoptosis Proteome Profiler array, cleaved caspase-3; format: cell-based; conditions: HCT-116, 1 h exposure, 2 × IC50 (3b at 30.2 μM)
Excerpt: To explore in detail the molecular mechanism of apoptosis induction by compounds 3b and 3c, we employed Human Apoptosis Proteome Profiler arrays that allow quantification of apoptosis-related biomarkers (Figure 3C). […] Collectively, it can be concluded that silyl derivative 3b promotes cell death in HCT 116 cells by the alteration of expression levels of survivin and activation of caspase-3.
The Human Apoptosis Array Kit (R&D Systems, Abingdon, UK) was used to determine the levels of expression of apoptosis-related proteins. 2.5 × 10^5 HCT 116 wt cells were seeded on 100 mm dishes (Nunc, ThermoFisher, Waltham, MA, USA) and allowed to attach for 24 h. Then the medium was replaced with tested compounds at a concentration corresponding 2 × IC50 value and the cells were incubated in 37 °C. After 60 min the cells were lysed and the lysates were clarified by centrifugation for 30 min at 14,000× g. The total protein concentration was measured using the Protein Quantification Kit-Rapid (Sigma-Aldrich, Taufkirchen, Germany) according to the manufacturer’s instruction. The next steps followed instructions from the manufacturer of the Human Apoptosis Array Kit. The membranes were then scanned in the G:Box trans illuminator (Syngene, Cambridge, UK) and the protein expression levels were quantified by densitometric analysis using ImageJ software.

| SMILES | IC50 (HCT 116 p53−/−) | IC50 (HT-29) | IC50 (U2OS) | effect on progression of the cell cycle (HCT-116 cells [1]; 10 μM) | sub-G1 cells (HCT-116 cells [1]; 10 μM) | percentage of cells in G1 phase (HCT-116 cells [1]; 20 μM, HCT 116, representative cytogram) | sub-G1 cells (HCT-116 cells [1]; 20 μM) | proapoptotic activity (HCT-116 cells [2]; 20 μM, 24 h, HCT-116) | cleaved caspase-3 level (caspase-3 activation) (cleaved caspase-3) | effect on progression of the cell cycle (HCT-116 cells [1]; 20 μM) | increase of the sub-G1 population (HCT-116 cells [1]; 20 μM) | apoptotic (death) cells in total, annexin-V+/PI− plus annexin-V+/PI+ (HCT-116 cells [2]; 20 μM, 24 h, HCT-116) | increase of the sub-G1 population (HCT-116 cells [1]; 10 μM) | induction of apoptosis / cell death in HCT-116 (HCT-116 cells [2]; HCT-116, statement in discussion) |
| --- | --- | --- | --- | --- | --- | --- | --- | --- | --- | --- | --- | --- | --- | --- |
| O=C1OC(O)C(Br)=C1Br (stereo not drawn) [MBA, 3,4-dibromo-5-hydroxyfuran-2(5H)-one, reference compound] | 25.4 ± 6 µM | 97.1 ± 6.6 µM | 97.6 ± 1.1 µM | neither the MBA nor its silyl derivatives 3b and 3c tested at 10 μM, influenced the progression of the cell cycle | 0.7% | 38.9% | 1.6% | negligible proapoptotic activity | neither the MBA nor compound 3c induced caspase-3 activation |  |  |  |  |  |
| CC(C)(C)[Si](OC1OC(=O)C(Br)=C1Br)(c1ccccc1)c1ccccc1 (stereo not drawn) [Compound 3c, 3,4-Dibromo-5-(tert-butyldiphenylsilyloxy)-furan-2(5H)-one] | 4 ± 0.3 µM | 3.9 ± 0.2 µM | 10.2 ± 0.8 µM | neither the MBA nor its silyl derivatives 3b and 3c tested at 10 μM, influenced the progression of the cell cycle |  |  |  |  | neither the MBA nor compound 3c induced caspase-3 activation | did not alter the progression of the cell cycle | 10% | 18.5% |  |  |
| CC(C)[Si](OC1OC(=O)C(Br)=C1Br)(C(C)C)C(C)C (stereo not drawn) [Compound 3b, 3,4-Dibromo-5-(triisopropylsilyloxy)-furan-2(5H)-one] | 10.8 ± 1 µM | 7.3 ± 0.8 µM | 9.3 ± 0.2 µM | neither the MBA nor its silyl derivatives 3b and 3c tested at 10 μM, influenced the progression of the cell cycle |  |  |  |  | significant up-regulation of cleaved caspase-3 | did not alter the progression of the cell cycle | 31% | roughly 30% | 10% | rapidly triggered cell death |
